Data taken from ChEMBL document CHEMBL4825714, “Hinge Binder Scaffold Hopping Identifies Potent Calcium/Calmodulin-Dependent Protein Kinase Kinase 2 (CAMKK2) Inhibitor Chemotypes” (J Med Chem, 2021).
Values after ≈ are worked out from the molar mass of the structure shown.

test: Solubility of the compound; type: physicochemical

solubility [µg/mL] | SMILES
1.5 (≈ 3.75 µM) | O=C(O)c1ccc(-c2csc3ncc(-c4ccccc4)cc23)cc1C1CCCC1
64.4 (≈ 203 µM) | O=C(O)c1ccc(-c2ccnc3ccccc23)cc1C1CCCC1
70.4 (≈ 178 µM) | O=C(O)c1ccc(-c2ncnc3ccc(-c4ccccc4)cc23)cc1C1CCCC1
42 (≈ 110 µM) | O=C(O)c1ccc(-c2cnn3ccc(-c4ccccc4)cc23)cc1C1CCCC1
62.6 (≈ 193 µM) | O=C(O)c1ccc(-c2ncnc3sccc23)cc1C1CCCC1
2 (≈ 5.23 µM) | O=C(O)c1ccc(-c2c[nH]c3ncc(-c4ccccc4)cc23)cc1C1CCCC1 [GSK-650394]
38 (≈ 96.6 µM) | O=C(O)c1ccc(-c2ccnc3ccc(-c4ccccc4)cc23)cc1C1CCCC1
10.6 (≈ 29.5 µM) | O=C(O)c1ccc(-c2ccnc(Nc3ccccc3)n2)cc1C1CCCC1
40 (≈ 125 µM) | Cn1ccc2c(-c3ccc(C(=O)O)c(C4CCCC4)c3)ccnc21
19.4 (≈ 72.3 µM) | O=C(O)c1ccc(-c2ccncn2)cc1C1CCCC1
